Assay results taken from article PMC11303713, “Allosteric inhibition of CFTR gating by CFTRinh-172 binding in the pore” (Nature Communications, 2024).
“And” between values parts separate entries of the source, which are not always exact repeats. Equal values may be shown once. Read-outs that look alike come from different tables or passages of the source.

Legend:
Test in all cases: Inside-out patch-clamp inhibition of CFTR current by Inh-172
Type in all cases: cell-based
[1] = target: T1, pig WT-CFTR (Sus scrofa, UniProt Q6PQZ2)
T1 construct: expressed in transfected cells; host or cells: CHO cells, pcDNA plasmid
Method: (§1) CHO cells were grown at 37 °C in Dulbecco’s modified Eagle’s medium supplemented with 10% (vol/vol) fetal bovine serum (Sigma-Aldrich, St. Louis, MO). pcDNA plasmids carrying the desired CFTR construct were transfected to CHO cells using PolyFect transfection reagent (Qiagen, Hilden, Germany) together with green fluorescence protein (GFP) cDNA (pEGFP-C3, Takara Bio, Shiga, Japan) that helps identify expression of CFTR. Cells were first incubated with the transfection reagents at 37 °C for 6-12 hours on sterile glass chips in 35-mm tissue culture dishes before transferred to 27 °C for incubation for 2–7 days. Primers for mutations were ordered from Integrated DNA Technologies (Coralville, IA) and were summarized in Supplementary Data. All CFTR mutants were prepared with QuikChange XL kit (Agilent, Santa Clara, CA) and sequenced at the DNA Core facility at University of Missouri-Columbia.
(§2) Patch-clamp pipettes were made from borosilicate capillary glass using a two-stage vertical puller (PP-81; Narishige, Amityville, NY). The pipette tips were fire polished with a homemade microforge to yield a pipette resistance of 2–5 MΩ when filled with a pipette solution containing (in mM): 140 NMDG-Cl (N-methyl-D-glucamine-chloride), 5 CaCl2, 2 MgCl2, and 10 HEPES, pH 7.4. For recordings, transfected cells on glass chips were transferred into a continuously perfused chamber on the stage of an inverted microscope (IX51; Olympus, Tokyo, Japan) with the perfusing solution containing (in mM): 150 NMDG-Cl, 2 MgCl2, 10 EGTA, 8 Tris, and 10 HEPES, pH 7.4. The membrane patch was excised to an inside-out configuration with a seal resistance >40 GΩ. CFTR currents were recorded with an amplifier (EPC9; HEKA, Holliston, MA), filtered through an eight-pole Bessel filter (LPF-8; Warner Instruments, Hamden, CT) at 100 Hz and digitized to a computer at a sampling rate of 500 Hz with Pulse software (version 8.53; HEKA). The membrane potential was held at −30 mV. Solution exchange was achieved by a fast solution change system (SF-77B; Warner Instruments). Inh-172 was obtained from the CFTR Chemical Compound Program supported by the Cystic Fibrosis Foundation. All experiments were performed at room temperature.
(§3) The steady state mean currents were measured in the Igor Pro software (version 8.0; WaveMetrics). The mean baseline currents were subtracted from the steady state mean currents before the data were used to determine the degrees of inhibition. The degrees of inhibition by CFTR inhibitor 172 were calculated based on the equation:1 %inhibition=1−IInh−172/I0X100% where I0 and Iinh−172 represent uninhibited and inhibited currents, respectively. The IC50 and Hill coefficients were obtained by fitting percent inhibition as a function of [Inh-172] with the Hill equation:2 %inhibition=base+(max−base)/1+xhalf/x^rate where max and base represent the […] percent inhibition by Inh-172, x represents the concentration of Inh-172, and the rate is the Hill coefficient. The estimated IC50 (xhalf) and Hill coefficients are listed in Table 1 as mean ± standard deviation. Each patch-clamp recording was made from a separate cell.

[2] = target: T2, human WT-CFTR (Homo sapiens, UniProt P13569); conditions: for inhibition at 0.05 µM: 50 nM Inh-172; for inhibition at 0.1 µM: 100 nM Inh-172; for inhibition at 1 µM: 1000 nM Inh-172
T2 construct: the native wild-type CFTR construct without any deletion or mutation; expressed in transfected cells; host or cells: CHO cells, pcDNA plasmid
Method: as §1, §2, §3

[3] = target: T3, T1142A-CFTR (Homo sapiens, UniProt P13569, T1142A)
T3 construct: expressed in transfected cells; host or cells: CHO cells, pcDNA plasmid
Method: as §1, §2, §3

[4] = target: T4, h-pTMD2-h-CFTR (human CFTR with pig CFTR's TMD2) (Homo sapiens, UniProt P13569, A1009S/A789T/A797V/A842T/E1221D/E815D/F931L/G885K/H897K/H950R/I1005V/I1226V/I853V/I869V/I982V/INS1173D/K1174Q/K1177R/K830R/L805I/L889P/M1028L/M837V/M929L/N1184D/N782S/N886K/P888S/Q1012K/Q1035H/R1128T/R899A/S1196Q/S877C/S898G/S912A/T1171A/T1176N/T1179F/T1220V/T788A/T925G/V1017L/V1056I/V794M/W882C/Y1182S); conditions: for inhibition at 0.5 µM: 500 nM Inh-172; for inhibition at 1 µM: 1000 nM Inh-172; for inhibition at 10 µM: 10000 nM Inh-172
T4 construct: expressed in transfected cells; host or cells: CHO cells, pcDNA plasmid
Method: as §1, §2, §3

[5] = 100 nM Inh-172, read-out: percent inhibition of current, Mean
[6] = 500 nM Inh-172, read-out: percent inhibition of current, Mean
[7] = 500 nM Inh-172, read-out: percent inhibition of current, individual cell
[8] = 1000 nM Inh-172, read-out: percent inhibition of current, Mean
[9] = 5000 nM Inh-172, read-out: percent inhibition of current, Mean
[10] = 5000 nM Inh-172, read-out: percent inhibition of current, individual cell
[11] = 10000 nM Inh-172, read-out: percent inhibition of current, Mean
[12] = 10000 nM Inh-172, read-out: percent inhibition of current, individual cell
[13] = read-out: percent inhibition of current, Mean
[14] = read-out: percent inhibition of current, individual cell

T2 sequence (P13569 whole entry): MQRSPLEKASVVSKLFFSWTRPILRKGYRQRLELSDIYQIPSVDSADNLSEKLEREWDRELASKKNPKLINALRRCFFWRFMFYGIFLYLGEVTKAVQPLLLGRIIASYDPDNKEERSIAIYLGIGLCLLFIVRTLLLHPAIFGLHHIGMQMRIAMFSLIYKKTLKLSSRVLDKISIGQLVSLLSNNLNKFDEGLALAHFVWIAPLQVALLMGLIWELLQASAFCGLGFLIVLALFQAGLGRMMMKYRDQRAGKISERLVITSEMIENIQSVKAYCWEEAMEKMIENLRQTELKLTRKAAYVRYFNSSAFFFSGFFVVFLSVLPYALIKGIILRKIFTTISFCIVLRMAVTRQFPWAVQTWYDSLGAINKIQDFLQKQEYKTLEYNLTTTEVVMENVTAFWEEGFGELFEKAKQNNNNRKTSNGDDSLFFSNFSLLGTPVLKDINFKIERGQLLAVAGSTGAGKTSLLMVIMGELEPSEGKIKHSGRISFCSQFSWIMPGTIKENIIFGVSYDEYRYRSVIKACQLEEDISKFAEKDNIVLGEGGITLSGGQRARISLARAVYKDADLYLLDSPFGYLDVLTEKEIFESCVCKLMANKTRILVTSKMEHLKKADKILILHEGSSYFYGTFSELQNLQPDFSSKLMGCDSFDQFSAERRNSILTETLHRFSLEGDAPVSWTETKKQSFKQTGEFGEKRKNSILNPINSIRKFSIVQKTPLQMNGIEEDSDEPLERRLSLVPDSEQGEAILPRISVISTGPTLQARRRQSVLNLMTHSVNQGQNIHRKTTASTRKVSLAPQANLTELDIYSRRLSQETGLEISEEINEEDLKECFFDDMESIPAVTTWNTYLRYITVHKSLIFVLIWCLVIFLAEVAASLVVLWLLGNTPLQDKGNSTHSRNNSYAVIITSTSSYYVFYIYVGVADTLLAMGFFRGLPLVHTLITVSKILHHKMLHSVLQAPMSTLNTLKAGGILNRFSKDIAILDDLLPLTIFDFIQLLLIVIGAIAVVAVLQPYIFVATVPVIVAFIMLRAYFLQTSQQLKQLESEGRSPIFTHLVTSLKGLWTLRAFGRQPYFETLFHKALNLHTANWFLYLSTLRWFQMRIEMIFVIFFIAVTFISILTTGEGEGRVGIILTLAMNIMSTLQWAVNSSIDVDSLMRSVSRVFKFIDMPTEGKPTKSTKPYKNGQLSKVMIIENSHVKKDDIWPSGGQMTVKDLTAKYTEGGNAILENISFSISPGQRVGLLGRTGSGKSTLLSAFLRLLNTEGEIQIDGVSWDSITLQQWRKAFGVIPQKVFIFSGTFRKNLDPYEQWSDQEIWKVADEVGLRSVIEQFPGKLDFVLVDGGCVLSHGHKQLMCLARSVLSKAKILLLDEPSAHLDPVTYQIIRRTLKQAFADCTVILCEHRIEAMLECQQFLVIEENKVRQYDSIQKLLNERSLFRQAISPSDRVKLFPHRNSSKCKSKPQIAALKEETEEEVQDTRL
T4 sequence (P13569 with tags, fused parts or gaps with the stated changes): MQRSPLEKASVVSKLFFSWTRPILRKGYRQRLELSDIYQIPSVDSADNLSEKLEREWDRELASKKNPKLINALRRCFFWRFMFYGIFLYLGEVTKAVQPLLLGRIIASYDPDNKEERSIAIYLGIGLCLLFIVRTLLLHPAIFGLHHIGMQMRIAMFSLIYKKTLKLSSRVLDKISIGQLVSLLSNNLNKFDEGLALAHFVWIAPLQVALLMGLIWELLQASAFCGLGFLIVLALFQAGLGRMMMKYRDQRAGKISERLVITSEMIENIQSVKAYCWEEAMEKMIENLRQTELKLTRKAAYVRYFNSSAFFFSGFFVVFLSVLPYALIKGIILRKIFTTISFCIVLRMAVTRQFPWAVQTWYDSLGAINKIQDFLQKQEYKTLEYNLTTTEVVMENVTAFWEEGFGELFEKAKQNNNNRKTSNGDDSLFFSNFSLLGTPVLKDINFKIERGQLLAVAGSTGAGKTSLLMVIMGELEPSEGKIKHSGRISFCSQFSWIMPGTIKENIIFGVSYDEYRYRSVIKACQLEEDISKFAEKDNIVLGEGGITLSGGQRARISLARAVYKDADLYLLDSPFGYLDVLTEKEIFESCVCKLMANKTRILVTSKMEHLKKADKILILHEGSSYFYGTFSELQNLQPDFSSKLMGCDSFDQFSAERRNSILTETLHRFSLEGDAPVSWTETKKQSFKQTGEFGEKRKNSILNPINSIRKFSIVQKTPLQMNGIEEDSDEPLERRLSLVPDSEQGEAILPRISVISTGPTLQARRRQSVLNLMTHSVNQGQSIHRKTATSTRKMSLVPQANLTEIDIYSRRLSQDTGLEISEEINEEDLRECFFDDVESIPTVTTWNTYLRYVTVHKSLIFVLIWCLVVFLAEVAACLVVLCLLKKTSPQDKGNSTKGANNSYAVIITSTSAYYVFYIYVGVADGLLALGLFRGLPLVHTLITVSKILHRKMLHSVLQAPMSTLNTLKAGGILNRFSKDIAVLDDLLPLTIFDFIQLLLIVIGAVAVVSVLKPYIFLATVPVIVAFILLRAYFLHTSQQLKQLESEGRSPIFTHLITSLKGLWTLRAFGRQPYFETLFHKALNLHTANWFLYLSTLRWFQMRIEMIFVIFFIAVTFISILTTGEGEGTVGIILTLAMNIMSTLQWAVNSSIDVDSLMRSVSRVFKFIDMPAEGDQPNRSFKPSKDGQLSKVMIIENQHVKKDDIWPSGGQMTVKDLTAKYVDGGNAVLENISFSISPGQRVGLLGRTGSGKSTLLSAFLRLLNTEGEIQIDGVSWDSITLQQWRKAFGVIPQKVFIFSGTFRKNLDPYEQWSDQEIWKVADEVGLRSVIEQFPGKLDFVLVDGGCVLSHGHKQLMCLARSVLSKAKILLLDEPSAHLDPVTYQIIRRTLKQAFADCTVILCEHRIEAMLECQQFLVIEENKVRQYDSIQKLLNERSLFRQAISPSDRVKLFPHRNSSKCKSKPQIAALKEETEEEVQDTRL
T3 sequence (P13569 whole entry T1142A): as the sequence (P13569 whole entry) above, with T1142A counted along it
T1 sequence (Q6PQZ2 whole entry): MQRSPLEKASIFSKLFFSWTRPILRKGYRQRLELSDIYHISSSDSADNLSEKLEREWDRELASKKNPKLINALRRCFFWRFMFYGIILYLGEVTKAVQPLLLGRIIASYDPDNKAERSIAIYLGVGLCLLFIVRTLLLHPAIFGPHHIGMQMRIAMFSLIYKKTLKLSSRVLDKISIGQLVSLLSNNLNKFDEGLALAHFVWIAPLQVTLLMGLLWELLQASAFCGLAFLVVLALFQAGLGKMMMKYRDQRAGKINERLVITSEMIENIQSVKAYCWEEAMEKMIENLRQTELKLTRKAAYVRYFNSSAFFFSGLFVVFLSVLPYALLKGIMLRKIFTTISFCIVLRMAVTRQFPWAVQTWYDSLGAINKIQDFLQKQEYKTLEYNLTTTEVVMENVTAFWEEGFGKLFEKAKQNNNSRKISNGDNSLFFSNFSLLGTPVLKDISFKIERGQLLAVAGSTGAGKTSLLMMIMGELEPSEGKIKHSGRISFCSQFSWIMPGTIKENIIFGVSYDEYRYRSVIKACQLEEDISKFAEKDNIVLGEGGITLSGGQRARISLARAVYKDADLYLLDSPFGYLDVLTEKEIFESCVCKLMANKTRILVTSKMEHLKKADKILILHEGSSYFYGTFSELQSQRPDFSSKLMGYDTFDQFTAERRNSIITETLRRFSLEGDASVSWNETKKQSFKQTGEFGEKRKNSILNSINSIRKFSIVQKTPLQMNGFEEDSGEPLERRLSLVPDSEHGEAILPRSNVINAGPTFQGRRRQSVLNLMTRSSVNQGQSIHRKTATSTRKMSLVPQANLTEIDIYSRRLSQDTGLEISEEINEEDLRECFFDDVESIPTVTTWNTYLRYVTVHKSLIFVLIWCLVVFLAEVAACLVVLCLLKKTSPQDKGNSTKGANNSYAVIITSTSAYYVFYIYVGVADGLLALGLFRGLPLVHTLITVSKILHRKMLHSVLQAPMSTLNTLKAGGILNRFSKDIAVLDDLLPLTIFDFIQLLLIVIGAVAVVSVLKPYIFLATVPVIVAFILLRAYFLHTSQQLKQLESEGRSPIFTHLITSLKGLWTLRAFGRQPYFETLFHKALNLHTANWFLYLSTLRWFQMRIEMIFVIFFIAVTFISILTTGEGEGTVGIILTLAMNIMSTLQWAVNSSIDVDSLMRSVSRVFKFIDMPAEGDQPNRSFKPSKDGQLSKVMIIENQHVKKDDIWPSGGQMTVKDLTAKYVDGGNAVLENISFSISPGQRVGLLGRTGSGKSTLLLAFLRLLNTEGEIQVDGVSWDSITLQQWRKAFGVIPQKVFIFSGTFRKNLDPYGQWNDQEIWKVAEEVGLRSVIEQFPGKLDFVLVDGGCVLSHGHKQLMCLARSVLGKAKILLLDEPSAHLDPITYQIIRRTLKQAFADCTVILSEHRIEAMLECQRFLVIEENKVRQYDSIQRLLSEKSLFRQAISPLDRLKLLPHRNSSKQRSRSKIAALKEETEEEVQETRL

For `O=C(O)c1ccc(/C=C2\SC(=S)N(c3cccc(C(F)(F)F)c3)C2=O)cc1` [Inh-172, CFTRinh-172], the “percent inhibition of current, individual cell” value (“percent inhibition of current” for short) ([1]; 50 nM Inh-172) was 2.0 and 4.0 and 8.0 and 15.0 and 7.0, the inhibition at 0.05 µM ([1]; 50 nM Inh-172, read-out: percent inhibition of current, Mean) was 7.2% and the “percent inhibition of current” value ([1]; 100 nM Inh-172) was 2.0 and 18.0 and 5.0 and 13.0 and 6.0 and 7.0. For the same compound, the inhibition at 0.1 µM [1, 5] was 8.1%, the “percent inhibition of current” value ([1]; 500 nM Inh-172) was 31.0 and 27.0 and 25.0 and 23.0 and the inhibition at 0.5 µM [1, 6] was 25.9%. For the same compound, the inhibition at 0.5 µM [1, 7] was 22%, the “percent inhibition of current” value ([1]; 1000 nM Inh-172) was 33.0 and 38.0 and 40.0 and 21.0 and 41.0 and 44.0 and 39.0 and 36.0 and 29.0 and 42.0 and the inhibition at 1 µM [1, 8] was 36.3%. For the same compound, the “percent inhibition of current” value ([1]; 5000 nM Inh-172) was 62.0 and 70.0 and 59.0 and 77.0 and 72.0 and 79.0, the inhibition at 5 µM [1, 9] was 68.1% and the inhibition at 5 µM [1, 10] was 67%. The “percent inhibition of current” value ([1]; 10000 nM Inh-172) was 83.0 and 79.0 and 82.0 and 73.0 and 80.0 and 93.0, the inhibition at 10 µM [1, 11] was 82.7% and the inhibition at 10 µM [1, 12] was 89%. The “Hill Coefficient” value ([1]; Pig WT) was 0.83 ± 0.04, the IC50 ([1]; Pig WT) was 1860 ± 120 nM and the “IC50 of pig WT-CFTR higher than human WT-CFTR” value ([1]; cho cells inside-out patch) was ~ 20 fold. The inhibition at 0.025 µM ([2]; 25 nM Inh-172, read-out: percent inhibition of current, Mean) was 27.2%, the inhibition at 0.05 µM [2, 13] was 33.5% and the inhibition at 0.05 µM [2, 14] was 28%. For the same compound, the inhibition at 0.1 µM [2, 13] was 60.2%, the inhibition at 0.1 µM [2, 14] was 53% and the inhibition at 0.5 µM ([2]; 0.5 µM Inh-172, read-out: WT-CFTR current inhibited) was 80%. The inhibition at 0.5 µM [2, 6] was 81%, the inhibition at 0.5 µM [2, 7] was 75% and the inhibition at 1 µM [2, 13] was 91.4%. The inhibition at 1 µM [2, 14] was 88%, the inhibition at 10 µM [2, 12] was 89% and the “Hill Coefficient” value ([2]; Human WT) was 0.88 ± 0.09. For the same compound, the “Hill Coefficient” value ([2]; Human WT + 200 nM VX-770) was 1.07 ± 0.10, the IC50 ([2]; Human WT + 200 nM VX-770) was 250 ± 20 nM and the “Hill Coefficient” value ([2]; Human WT + 1 µM VX-770) was 0.98 ± 0.02. The IC50 ([2]; Human WT + 1 µM VX-770) was 420 ± 10 nM, the IC50 ([2]; Human WT, inside-out patch, -30 mV, 2 mM ATP, Hill fit) was 80 ± 10 nM and the IC50 ([2]; human CFTR, value of earlier manuscript version quoted in peer review file) was 83 nM. The “percent inhibition of current” value ([3]; 100 nM Inh-172) was 28.0 and 24.0 and 52.0 and 14.0 and 42.0, the inhibition at 0.1 µM [3, 5] was 31.3% and the “percent inhibition of current” value ([3]; 500 nM Inh-172) was 61.0 and 67.0 and 78.0 and 44.0 and 66.0. For the same compound, the inhibition at 0.5 µM [3, 6] was 63.2%, the “percent inhibition of current” value ([3]; 1000 nM Inh-172) was 74.0 and 70.0 and 87.0 and 60.0 and 78.0 and the inhibition at 1 µM [3, 8] was 73.8%. For the same compound, the “percent inhibition of current” value ([3]; 5000 nM Inh-172) was 93.0 and 96.0 and 84.0, the inhibition at 5 µM [3, 9] was 91.2% and the inhibition at 5 µM [3, 10] was 90%. The “percent inhibition of current” value ([3]; 10000 nM Inh-172) was 98.0 and 92.0, the inhibition at 10 µM [3, 11] was 96.2% and the inhibition at 10 µM [3, 12] was 97%. The “Hill Coefficient” value ([3]; T1142A) was 0.81 ± 0.02, the IC50 ([3]; T1142A) was 270 ± 10 nM and the inhibition at 0.1 µM [4, 5] was 6.8%. It also gave an inhibition at 0.5 µM [4, 13] of 18.8%, an inhibition at 0.5 µM [4, 14] of 15% and an inhibition at 1 µM [4, 13] of 28.5%. It also gave an inhibition at 1 µM [4, 14] of 22%, an inhibition at 5 µM [4, 9] of 56.5% and an inhibition at 10 µM [4, 13] of 62.7%. For the same compound, the inhibition at 10 µM [4, 14] was 68%, the “Hill Coefficient” value ([4]; h-pTMD2-h) was 0.69 ± 0.04 and the IC50 ([4]; h-pTMD2-h) was 4020 ± 280 nM. The IC50 ([4]; human CFTR with pig TMD2, earlier manuscript version, peer review file) was 4020 nM.
